Assay results from patent US20240317721A1, “PYRAZOLYL DERIVATIVES AS INHIBITORS OF THE KRAS MUTANT PROTEIN” (NOVARTIS AG, priority 2021, published 2024).
pIC50: −log10 of the molar value.

Target: KRasG12C (M1-K169, biotinylated on the N-terminus) (Homo sapiens (Human), UniProt P01116, G12C)
Test: Covalent competition assay: scintillation proximity assay (SPA) quantifying covalent modification of KRASG12C
Type: binding
Conditions: competition with radiolabeled covalent probe (Compound B/Compound A), 2 hours incubation, 10 nM KRasG12C
Procedure, shortened: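 Test compounds compete with a radiolabeled covalent probe for modification of N-terminally biotinylated KRasG12C(M1-K169):GDP, final 10 nM protein, 25 nM radio-ligand, 475 nM unlabelled ligand, 2 h with agitation in 20 mM Tris-HCl pH 7.5, 150 mM NaCl, 0.1 mM MgCl2, 0.01% Tween-20.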

Structure (SMILES) | pIC50
C=CC(=O)N1CC2(CC(n3nc(N4CCC(n5ccnc5)CC4(C)C)c(-c4c(Cl)c(C)cc5[nH]ncc45)c3C)C2)C1 (single isomer, unassigned) [Example 45b, 1-(6-(3-(4-(1H-imidazol-1-yl)-2,2-dimethylpiperidin-1-yl)-4-(5-chloro-6-methyl-1H-indazol-4-yl)-5-methyl-1H-pyrazol-1-yl)-2-azaspiro[3.3]heptan-2-yl)prop-2-en-1-one] | 5.82
C=CC(=O)N1CC2(CC(n3nc(N4CCn5ccnc5C4)c(-c4c(Cl)c(C)cc5[nH]ncc45)c3C)C2)C1 (single isomer, unassigned) [Example 19b, 1-(6-(4-(5-chloro-6-methyl-1H-indazol-4-yl)-3-(5,6-dihydroimidazo[1,2-a]pyrazin-7(8H)-yl)-5-methyl-1H-pyrazol-1-yl)-2-azaspiro[3.3]heptan-2-yl)prop-2-en-1-one] | 4.46
C=CC(=O)N1CC2(CCC(n3nc(N4CCN(C(C)=O)CC4)c(-c4c(Cl)ccc5[nH]ncc45)c3C)C2)C1 (single isomer, unassigned) [Example 53c, 1-(6-(3-(4-acetylpiperazin-1-yl)-4-(5-chloro-1H-indazol-4-yl)-5-methyl-1H-pyrazol-1-yl)-2-azaspiro[3.4]octan-2-yl)prop-2-en-1-one] | < 4.30
C=CC(=O)N1CC2(CC(n3nc(N4CCN(C[C@@H]5COCCO5)C[C@@]4(CC)C(F)F)c(-c4c(Cl)c(C)cc5[nH]ncc45)c3C)C2)C1 (single isomer, unassigned) [Example 107a] | < 5.30
C=CC(=O)N1CC2(CC(n3nc(N4CCC(C)(O)CC4(C)C)c(-c4c(Cl)c(C)cc5[nH]ncc45)c3C)C2)C1 (single isomer, unassigned) [Example 27b, 1-(6-(4-(5-chloro-6-methyl-1H-indazol-4-yl)-3-(4-hydroxy-2,2,4-trimethylpiperidin-1-yl)-5-methyl-1H-pyrazol-1-yl)-2-azaspiro[3.3]heptan-2-yl)prop-2-en-1-one] | 7.62
C=CC(=O)N1CC2(CC(n3nc(N4CCn5ccnc5C4(C)C)c(-c4c(Cl)c(C)cc5[nH]ncc45)c3C)C2)C1 (single isomer, unassigned) [Example 23a, 1-(6-(4-(5-chloro-6-methyl-1H-indazol-4-yl)-3-(8,8-dimethyl-5,6-dihydroimidazo[1,2-a]pyrazin-7(8H)-yl)-5-methyl-1H-pyrazol-1-yl)-2-azaspiro[3.3]heptan-2-yl)prop-2-en-1-one] | < 4.30
C=CC(=O)N1CC2(CC(n3nc(N4CCC5C(=O)N(C)CC5C4)c(-c4c(Cl)c(C)cc5[nH]ncc45)c3C)C2)C1 (stereo not drawn) [Example 16, (3aS*,7aS*)-5-(1-(2-acryloyl-2-azaspiro[3.3]heptan-6-yl)-4-(5-chloro-6-methyl-1H-indazol-4-yl)-5-methyl-1H-pyrazol-3-yl)-2-methyloctahydro-1H-pyrrolo[3,4-c]pyridin-1-one] | 6.00
C=CC(=O)N1CC2(CC(n3nc(N4CCN(C5COC5)CC4(CC)CC)c(-c4c(Cl)c(C)cc5[nH]ncc45)c3C)C2)C1 (single isomer, unassigned) [Example 152a, 1-(6-(4-(5-chloro-6-methyl-1H-indazol-4-yl)-3-(2,2-diethyl-4-(oxetan-3-yl)piperazin-1-yl)-5-methyl-1H-pyrazol-1-yl)-2-azaspiro[3.3]heptan-2-yl)prop-2-en-1-one] | < 5.30
C=CC(=O)N1CC2(CC(n3nc(N4CCC(O)CC4(C)C)c(-c4c(Cl)c(C)cc5[nH]ncc45)c3C)C2)C1 (single isomer, unassigned) [Example 30a, 1-(6-(4-(5-chloro-6-methyl-1H-indazol-4-yl)-3-(4-hydroxy-2,2-dimethylpiperidin-1-yl)-5-methyl-1H-pyrazol-1-yl)-2-azaspiro[3.3]heptan-2-yl)prop-2-en-1-one] | 6.29
C=CC(=O)N1CC2(CC(n3nc(N4CCC(N(C)C5COC5)CC45CCC5)c(-c4c(Cl)c(C)cc5[nH]nc(N)c45)c3C)C2)C1 (single isomer, unassigned) [Example 115a, 1-(6-(4-(3-amino-5-chloro-6-methyl-1H-indazol-4-yl)-5-methyl-3-(8-(methyl(oxetan-3-yl)amino)-5-azaspiro[3.5]nonan-5-yl)-1H-pyrazol-1-yl)-2-azaspiro[3.3]heptan-2-yl)prop-2-en-1-one] | 8.15
C=CC(=O)N1CC2(CC(n3nc(N4CCN(CC5(O)CC5)CC45CCC5)c(-c4c(Cl)c(C)cc5[nH]ncc45)c3C)C2)C1 (single isomer, unassigned) [Example 154b, 1-(6-(4-(5-chloro-6-methyl-1H-indazol-4-yl)-3-(8-((1-hydroxycyclopropyl)methyl)-5,8-diazaspiro[3.5]nonan-5-yl)-5-methyl-1H-pyrazol-1-yl)-2-azaspiro[3.3]heptan-2-yl)prop-2-en-1-one] | 7.66
C=CC(=O)N1CC2(CC(n3nc(N4CCN(C(=O)OCCOC)CC45CCC5)c(-c4c(Cl)c(C)cc5[nH]ncc45)c3C)C2)C1 (single isomer, unassigned) [Example 122a, 2-methoxyethyl 5-(1-(2-acryloyl-2-azaspiro[3.3]heptan-6-yl)-4-(5-chloro-6-methyl-1H-indazol-4-yl)-5-methyl-1H-pyrazol-3-yl)-5,8-diazaspiro[3.5]nonane-8-carboxylate] | < 5.30
C=C(F)C(=O)N1CC2(CC(n3nc(N4CCN(C[C@@H]5COCCO5)C[C@]4(C)CC)c(-c4c(Cl)c(C)cc5[nH]ncc45)c3C)C2)C1 (single isomer, unassigned) [Example 174b] | 6.92
C=CC(=O)N1CC2(CC(n3nc(N4CCN(S(C)(=O)=O)CC4(C)C)c(-c4c(Cl)c(C)cc5[nH]ncc45)c3C)C2)C1 (single isomer, unassigned) [Example 126a, 1-(6-(4-(5-chloro-6-methyl-1H-indazol-4-yl)-3-(2,2-dimethyl-4-(methylsulfonyl)piperazin-1-yl)-5-methyl-1H-pyrazol-1-yl)-2-azaspiro[3.3]heptan-2-yl)prop-2-en-1-one] | < 4.30
C=CC(=O)N1CC2(CC(n3nc(N4CCC(N5CCOCC5)CC45CCC5)c(-c4c(Cl)c(C)cc5[nH]ncc45)c3C)C2)C1 (single isomer, unassigned) [Example 63a, 1-(6-(4-(5-chloro-6-methyl-1H-indazol-4-yl)-5-methyl-3-(8-morpholino-5-azaspiro[3.5]nonan-5-yl)-1H-pyrazol-1-yl)-2-azaspiro[3.3]heptan-2-yl)prop-2-en-1-one] | 8.00
C=CC(=O)N1CC2(CC(n3nc(N4CCN(C5COC5)CC45CCC5)c(-c4c(Cl)c(Cl)cc5[nH]ncc45)c3C)C2)C1 (single isomer, unassigned) [Example 72b] | 8.15

Next, values leading:

pIC50 | Structure (SMILES)
5.62 | C=CC(=O)N1CC2(CC(n3nc(N4CC[C@@H](CN5CCN(C)[C@H](CO)C5)CC4(C)C)c(-c4c(Cl)c(Cl)cc5[nH]ncc45)c3C)C2)C1 (single isomer, unassigned) [Example 270a]
8.10 | C=CC(=O)N1CC2(CC(n3nc(N4CC[C@@H](CN5CC6(COCCN6C)C5)CC4(C)C)c(-c4c(Cl)c(Cl)cc5[nH]ncc45)c3C)C2)C1 (single isomer, unassigned) [Example 291b]
6.08 | C=CC(=O)N1CC2(CC(n3nc(N4CC[C@@H](CN5CCN6C(=O)OCC6C5)CC4(C)C)c(-c4c(Cl)c(Cl)cc5[nH]ncc45)c3C)C2)C1 (single isomer, unassigned) [Example 312a]
7.64 | C=CC(=O)N1CC2(CC(n3nc(N4CC[C@@H](CN5CCOC6(COC6)C5)CC4(C)C)c(-c4c(Cl)c(C)cc5[nH]ncc45)c3C)C2)C1 (single isomer, unassigned) [Example 299b]
5.48 | C=CC(=O)N1CC2(CC(n3nc(N4CC[C@@H](CN5CCN(C(=O)NC)CC5)CC4(C)C)c(-c4c(Cl)c(Cl)cc5[nH]ncc45)c3C)C2)C1 (single isomer, unassigned) [Example 289a]
5.05 | C=CC(=O)N1CC2(CC(n3nc(N4CCN(C(C)=O)CC4)c(-c4c(Cl)ccc5[nH]ncc45)c3C)C2)C1C (single isomer, unassigned) [Example 196b, 1-(6-(3-(4-acetylpiperazin-1-yl)-4-(5-chloro-1H-indazol-4-yl)-5-methyl-1H-pyrazol-1-yl)-1-methyl-2-azaspiro[3.3]heptan-2-yl)prop-2-en-1-one]
5.33 | C=CC(=O)N1CC2(CC(n3nc(N4CC[C@@H](CN5C[C@@H]6CS(=O)(=O)C[C@@H]6C5)CC4(C)C)c(-c4c(Cl)c(Cl)cc5[nH]ncc45)c3C)C2)C1 (single isomer, unassigned) [Example 294a]
< 5.30 | C=CC(=O)N1CC2(CC(n3nc(N4CCN(C[C@@H]5COCCO5)C[C@]4(C)CC)c(-c4c(Cl)c(C)cc5[nH]ncc45)c3C)C2)C1C (single isomer, unassigned) [Example 199a]
< 5.30 | C=CC(=O)N1CC2(CC(n3nc(N4CC[C@@H](CN5CC6(CCN(S(C)(=O)=O)C6)C5)CC4(C)C)c(-c4c(Cl)c(Cl)cc5[nH]ncc45)c3C)C2)C1 (single isomer, unassigned) [Example 297a]
5.54 | C=CC(=O)N1CC2(CC(n3nc(N4CC[C@@H](CN5CCN(C(=O)CO)CC5)CC4(C)C)c(-c4c(Cl)c(Cl)cc5[nH]ncc45)c3C)C2)C1 (single isomer, unassigned) [Example 310a]
8.00 | C=CC(=O)N1CC2(CC(n3nc(N4CC[C@@H](CN5CCOCC56COC6)CC4(C)C)c(-c4c(C)c(Cl)cc5[nH]ncc45)c3C)C2)C1 (single isomer, unassigned) [Example 302b]
8.05 | C=CC(=O)N1CC2(CC(n3nc(N4CC[C@@H](CN5CCN(C(C)=O)CC5)CC4(C)C)c(-c4c(Cl)c(Cl)cc5[nH]ncc45)c3C)C2)C1 (single isomer, unassigned) [Example 319b]
5.85 | C=CC(=O)N1CC2(CC(n3nc(N4CC[C@@H](CN5CCO[C@@H](CO)C5)CC4(C)C)c(-c4c(Cl)c(Cl)cc5[nH]ncc45)c3C)C2)C1 (single isomer, unassigned) [Example 247a]
